Structures are written as SMILES.

Usually melting point stands for the temperature, or range, at which the solid turns liquid. With `CS(=O)(=O)Nc1ccc2c(c1)S(=O)(=O)N=C(C1=C(O)[C@@H]3C4CCC(CC4)[C@@H]3N(Cc3ccc(F)cc3)C1=O)N2`, the melting point is 203.8 to 205.7 °C.
